Counter-ions that a name gives are not always drawn. Like-named read-outs stand apart in the source and are kept apart here.
Assays:
histamine induced asthma = experiment: Inhibitory effect on histamine induced asthma in guinea pigs; assay type: in vivo, guinea pig (female Hartley); conditions: Cavia porcellus, po, read-out: Antihistaminic activity (% inhibition)
Description: 2. Inhibitory effect on histamine induced asthma in guinea pigs
The experiment was performed according to the method of Suyama et al. which is described in Jpn. J. Allergol. 15, 549-556, 1966. Female Hartley guinea pigs weighing 300-400 g were used in groups of 5 or more. One hour after the oral administration of test compound solution, animals were placed in a transparent square box and exposed to a 0.2% histamine hydrochloride (Nakarai Chemicals, Ltd.) saline aerosol using an ultrasonic nebulizer (Nihon Kohden, TUR-3000). Protection was assessed during the exposure period (5 minutes) by the presence or absence of loss of righting due to dyspnea. The effects of test compounds were expressed in terms of percent inhibition.

5-lipoxygenase = biological target: T1, 5-lipoxygenase (Cavia porcellus, UniProt A0A286X958); experiment: 5-lipoxygenase inhibition (arachidonic acid induced chemiluminescence of peripheral leukocytes in guinea pigs); assay type: cell-based, guinea pig
T1 construct: Guinea pigs were anesthetized with ethyl ether, and the peripheral blood was collected in heparinized syringes; endogenous in cells; host or cells: guinea pig peripheral blood leukocytes (dextran sedimentation, erythrocytes lysed)
T1 sequence (A0A286X958 1-674): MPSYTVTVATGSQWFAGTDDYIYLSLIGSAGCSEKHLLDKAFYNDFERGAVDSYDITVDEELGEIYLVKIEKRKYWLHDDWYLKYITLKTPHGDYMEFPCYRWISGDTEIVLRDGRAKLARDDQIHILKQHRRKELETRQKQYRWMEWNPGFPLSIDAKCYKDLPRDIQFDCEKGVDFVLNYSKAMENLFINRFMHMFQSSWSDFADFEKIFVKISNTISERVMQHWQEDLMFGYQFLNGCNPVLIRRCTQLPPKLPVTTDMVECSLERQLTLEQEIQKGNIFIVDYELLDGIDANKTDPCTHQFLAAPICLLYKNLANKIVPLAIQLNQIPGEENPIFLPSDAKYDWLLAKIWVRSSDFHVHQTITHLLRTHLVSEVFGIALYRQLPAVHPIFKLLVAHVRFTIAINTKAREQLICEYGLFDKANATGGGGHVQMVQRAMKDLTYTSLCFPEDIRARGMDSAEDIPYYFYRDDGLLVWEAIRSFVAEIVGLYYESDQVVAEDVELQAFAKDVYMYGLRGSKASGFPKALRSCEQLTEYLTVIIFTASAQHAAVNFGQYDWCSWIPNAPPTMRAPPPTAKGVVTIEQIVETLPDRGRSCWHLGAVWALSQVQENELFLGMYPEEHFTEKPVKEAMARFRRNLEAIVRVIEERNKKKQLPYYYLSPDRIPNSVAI
Description: 1. Inhibitory activity on 5-lipoxygenase (Effect of test compounds on arachidonic acid induced chemiluminescence of peripheral leukocytes in guinea pigs)
(1) Isolation of leukocytes and preparation of leukocyte suspension
Guinea pigs were anesthetized with ethyl ether, and the peripheral blood was collected in heparinized syringes (10 U/ml, blood) from the abdominal aorta through a needle.
50 ml of a 6% dextran solution (molecular weight 177,000, Nakarai Chemicals Ltd.) was added to 100 ml of blood. This suspension was gently mixed, and was allowed to sediment for 60 minutes at room temperature. The upper leukocyte-rich suspension was centrifuged at 400×g for 10 minutes at room temperature. Tris-HCl buffer (pH 7.65) containing 5.0 ml of a 0.83% ammonium chloride solution was added to the cell pellet to lyse remaining erythrocytes. This suspension was centrifuged at 150×g for 10 minutes at 4° C. Eagle's MEM (10 ml) containing 10% fetal bovine serum (Flow Laboratories, Inc.) was added to the cell pellet. This suspension was centrifuged under the same conditions. The cell pellet was suspended in an equal volume of phosphate buffered saline (pH 7.4) containing 0.2% glucose and 0.2% bovine serum albumin, and this mixture was centrifuged under the same conditions. The above procedure was performed twice, and the cell pellet was suspended in the above buffer to adjust the leukocyte counts to 5×10^6 cells/ml.
(2) Chemiluminescence assay
Chemiluminescence was measured by the method of Yoshimoto et al. which is described in Biochem. Biophys. Res. Commun. 107, 779-784, 1982. Briefly, 0.3 ml of a leukocyte suspension was preincubated with 5 μl of a test compound solution of phosphate-buffered saline as controls, 0.05 ml of 1 mM luminol (Nakarai Chemicals, Ltd.) and 0.05 ml of 100 μM indomethacin (Sumitomo Chemical Co. Ltd.) After preincubation at 26° C. for 2 minutes, 100 μl of 2 mM arachidonic acid (Sigma) was added to the reaction mixture. Chemiluminescence was recorded continuously by an Aminco Chem-Glow model J4-7441S photometer equipped with a Hitachi model 056 recorder, and the peak height of luminol intensity was measured. The effects of test compounds were expressed as IC50 values (μM).

[1] = background, in words; cited from earlier work
Acute toxicity in mice = conditions: mouse, in vivo, 14 days observation
Description: (§1) 3. Acute toxicity in mice and rats
(§2) The acute toxicity of test compound No. 2 was evaluated in 120 male mice weighing 30-42 g and 120 female mice weighing 23-35 g, and in 56 male rats weighing 150-190 g and 56 female rats weighing 115-150 g by oral and intraperitoneal administration. […] LD50 values were calculated by probit method.

Acute toxicity in rats = conditions: rat, in vivo, 14 days observation
Description: as §1, §2

[2] = prior art, in words; cited from earlier work
[3] = prior art, in words; cited from earlier work; remark: listed apart in the source
[4] = prior art, in words; cited from earlier work; remark: listed apart in the source
[5] = arachidonic acid induced chemiluminescence, guinea pig leukocytes, median inhibition concentration, read-out: 5-lipoxygenase inhibiting activity IC50

CCCCCCn1c(C)c(C(=O)NC2CCN(CCc3ccccc3)CC2)c2cc(O)ccc21 [Example 10, 1-Hexyl-5-hydroxy-2-methyl-N-(1-(2-phenylethyl)-4-piperidyl)indole-3-carboxamide hydrochloride monohydrate]
inhibition in vivo at 0.5 mg/kg (histamine induced asthma; 1 h): 20% | inhibition in vivo at 2.5 mg/kg (histamine induced asthma; 1 h): 100%

Cc1c(C(=O)NC2CCN(CCc3ccccc3)CC2)c2cc(O)ccc2n1C1CCCCC1 [Example 12, 1-Cyclohexyl-5-hydroxy-2-methyl-N-(1-(2-phenylethyl)-4-piperidyl)indole-3-carboxamide hydrochloride hemihydrate]
IC50 (5-lipoxygenase): 1700 nM

CCCCC/C=C\C\C=C/C=C/C=C/[C@@H](SC[C@H](NC(=O)CC[C@H](N)C(=O)O)C(=O)NCC(=O)O)[C@@H](O)CCCC(=O)O [LTC4]
bronchoconstriction activity [1]: strong bronchoconstriction activity

CCCCn1c(C)c(C(=O)NC2CCN(CCc3ccccc3)CC2)c2cc(O)ccc21 [Example 2, 1-butyl-5-hydroxy-2-methyl-N-(1-(2-phenylethyl)-4-piperidyl)indole-3-carboxamide]
IC50 (5-lipoxygenase): 450 nM | inhibition in vivo at 0.5 mg/kg (histamine induced asthma; 1 h): 40% | inhibition in vivo at 2.5 mg/kg (histamine induced asthma; 1 h): 100% | LD50 at 336 h (Acute toxicity in mice; ip, female mice): 1470 mg/kg | LD50 at 336 h (Acute toxicity in mice; ip, male mice): 1430 mg/kg | LD50 at 336 h (Acute toxicity in mice; po, female mice): > 10400 mg/kg | LD50 at 336 h (Acute toxicity in mice; po, male mice): > 12000 mg/kg | LD50 at 336 h (Acute toxicity in rats; ip, female rats): 1930 mg/kg | LD50 at 336 h (Acute toxicity in rats; ip, male rats): 1940 mg/kg | LD50 at 336 h (Acute toxicity in rats; po, female rats): > 9000 mg/kg | LD50 at 336 h (Acute toxicity in rats; po, male rats): > 9000 mg/kg

Cc1c(C(=O)NC2CCN(CCc3ccccc3)CC2)c2cc(O)ccc2n1CC(C)C [Example 6, 5-Hydroxy-1-isobutyl-2-methyl-N-(1-(2-phenylethyl)-4-piperidyl)indole-3-carboxamide hydrochloride]
inhibition in vivo at 0.5 mg/kg (histamine induced asthma; 1 h): 0% | inhibition in vivo at 2.5 mg/kg (histamine induced asthma; 1 h): 60%

CCCCC/C=C\C\C=C/C=C/C=C/[C@@H](SC[C@H](N)C(=O)O)[C@@H](O)CCCC(=O)O [LTE4]
bronchoconstriction activity [1]: strong bronchoconstriction activity

CCCCC/C=C\C\C=C/C=C/C=C/[C@@H](SC[C@H](N)C(=O)NCC(=O)O)[C@@H](O)CCCC(=O)O [LTD4]
bronchoconstriction activity [1]: strong bronchoconstriction activity

O=C(NC1CCN(CCc2c[nH]c3ccccc23)CC1)c1c[nH]c2ccccc12 [3-[2-(4-[indole-3-carboxamido]-1-piperidyl)ethyl]indole]
anti-histaminic activity [2]: very weak anti-histaminic activity | hypotensive effect [3]: moderate hypotensive effect | anti-inflammatory action [4]: effective anti-inflammatory action

Cc1c(C(=O)NC2CCN(CCc3ccccc3)CC2)c2cc(O)ccc2n1Cc1ccccc1 [Example 4, 1-benzyl-5-hydroxy-2-methyl-N-(1-(2-phenylethyl)-4-piperidyl)indole-3-carboxamide hydrochloride]
IC50 (5-lipoxygenase): 850 nM | inhibition in vivo at 0.5 mg/kg (histamine induced asthma; 1 h): 60%

Cc1c(C(=O)NC2CCN(CCc3ccccc3)CC2)c2cc(O)ccc2n1-c1ccccc1 [Example 29, 5-Hydroxy-2-methyl-N-(1-(2-phenylethyl)-4-piperidyl)-1-phenylindole-3-carboxamide hydrochloride]
IC50 (5-lipoxygenase; [5]): 1400 nM | inhibition in vivo at 0.5 mg/kg (histamine induced asthma; 0.5 mg/kg, p.o., 1 hour before histamine aerosol, guinea pigs): 33%

CN(C)CCOC(c1ccccc1)c1ccccc1 [Comparison B, Diphenhydramine, reference compound]
inhibition in vivo at 5 mg/kg (histamine induced asthma; 1 h): 20% | inhibition in vivo at 25 mg/kg (histamine induced asthma; 1 h): 100%

CCCCn1c(C)c(C(=O)NC2CCN(CCOc3ccccc3)CC2)c2cc(O)ccc21 [Example 31, 1-Butyl-5-hydroxy-2-methyl-N-(1-(2-phenoxyethyl)-4-piperidyl)indole-3-carboxamide]
IC50 (5-lipoxygenase): 260 nM

Cc1c(C(=O)NC2CCN(CCc3ccccc3)CC2)c2cc(O)ccc2n1-c1ccc(Cl)cc1 [Example 24, 1-(p-Chlorophenyl)-5-hydroxy-2-methyl-N-(1-(2-phenylethyl)-4-piperidyl)indole-3-carboxamide hydrochloride]
IC50 (5-lipoxygenase; [5]): 4200 nM

Cc1c(C(=O)NC2CCN(CCCc3ccccc3)CC2)c2cc(O)ccc2n1-c1ccccc1 [Example 26, 5-Hydroxy-2-methyl-1-phenyl-N-(1-(3-phenylpropyl)-4-piperidyl)indole-3-carboxamide hydrochloride monohydrate]
IC50 (5-lipoxygenase; [5]): 2500 nM

Cc1c(C(=O)NC2CCN(CCc3ccccc3)CC2)c2cc(O)ccc2n1C(C)C [Example 5, 5-hydroxy-1-isopropyl-2-methyl-N-(1-(2-phenylethyl)-4-piperidyl)indole-3-carboxamide hydrochloride]
inhibition in vivo at 0.5 mg/kg (histamine induced asthma; 1 h): 100%

O=C(NC1CCN(CCc2c[nH]c3ccccc23)CC1)c1ccccc1 [indoramin, 3-[2-(4-benzamidopiperid-1-yl)ethyl]indole]
hypotensive effect [3]: possesses hypotensive activity

Cc1c(C(=O)NC2CCN(CCc3ccccc3)CC2)c2cc(O)ccc2n1CCc1ccccc1 [Example 16, 5-Hydroxy-2-methyl-1-(2-phenylethyl)-N-(1-(2-phenylethyl)-4-piperidyl)indole-3-carboxamide hydrochloride]
IC50 (5-lipoxygenase): 1000 nM | inhibition in vivo at 2.5 mg/kg (histamine induced asthma; 1 h): 100%

Source: US4576940A, “Anti-allergic 3-indolecarboxamides” (Yoshitomi Pharmaceutical Industries, Ltd., priority 1983, dated 1986)
